Primed or numbered codes have the meaning given here. No end group written: not given here. *: point of attachment. Dabcyl″ = label, CN(C)c1ccc(/N=N/c2ccc(C(=O)*)cc2)cc1; EDANS = O=S(=O)(O)c1cccc2c(NCCN*)cccc12; Dabcyl′ = not defined here; pyrene = label
Columns and labels:
[1] = system: surface of Staphylococcus; experiment: Binding of fluorescent peptide to the surface of Staphylococcus; settings: predicted
Source text: Substrates for use in the present invention include any molecule, either synthetic or naturally-occurring that can interact with an enzyme of the present invention. Examples of substrates include those substrates described herein, as well as substrates for these enzymes that are known in the art. […] Such substrates described herein can be obtained from commercial sources, e.g., Sigma (St. Louis, Mo.), or can be produced, e.g., isolated or purified, or synthesized using methods known to those of skill in the art.

Pseudomonas = experiment: Peptide on positively charged membrane exposed to Pseudomonas culture medium; type: biochemical; settings: FIG. 17C
Source text: Electrostatic interactions make use of the charges on the peptide or chromophore to bind it to a surface to make a biosensor. For example, ion exchange membranes with a strong negative (ICE450) or positive (SB-6407) charge are available from Pall Gelman Laboratory, Ann Arbor, Mich. It is possible to bind the peptide substrates through interactions with their charged groups. The peptide substrate papa2, as described herein, was spotted onto a positively charged membrane and exposed to Pseudomonas culture medium.

Pseudomonas protease = experiment: Protease assay with modified version of papa1, bacterial supernatants; type: biochemical, Pseudomonas aeruginosa; settings: supernatants of eight bacteria; excitation 355 nm, emission 485 nm; FIG. 17A
Experimental: The protease assay described herein for detection of P. aeruginosa was run with the modified version of papa1. […] Each of the resulting cultures was spun down by centrifugation and the supernatant was collected. The assays were run in 20 mM tris buffer (pH 7.4) with 150 mM NaCl added. The reaction was carried out with 7 μL of supernatant and 3 μL of peptide substrate (5 mg/mL in water) in 100 μL total volume at 37° C. The reaction was followed on a fluorimetric plate reader using an excitation wavelength of 355 nm and an emission wavelength of 485 nm.

P. aeruginosa protease = experiment: Protease assay on porcine wound fluid; type: biochemical, Pseudomonas aeruginosa; settings: porcine wounds infected with 10^3, 10^4 or 10^5 bacteria, 3 days; 1 hour reaction; FIG. 18
Experimental: In order to test for the presence of enzymatic activity in a wound bacterial protease assay for detection of P. aeruginosa was performed on samples obtained from wound infections made in pigs. […] Each of the resulting cultures was diluted into sodium phosphate buffer at pH 7.2 with 150 mM NaCl (PBS buffer) to give samples containing 10^5, 10^4, and 10^3 bacteria total in 100 μL. Immediately after surgery to create a series of partial thickness wounds was performed on the pigs, the wound surfaces were treated with calcium chloride solution for a short period and then patted dry. A buffer solution containing diluted bacterial cultures was placed on the surface of the wounds. The wounds were then covered and the infections were allowed to grow for a period of 3 days. After the dressing was removed from the pigs and the wounds were scored for degree of inflammation, 100 μL of PBS buffer was added to the wound surface and the extracted wound fluid was recovered by pipet. Each of the samples was split in half and 50 μL were used to inoculate BHI plates and the other 50 μL were placed in plastic tubes and immediately frozen at −80° C.
The buffer used to dilute the wound fluid in the protease assays was PBS. […] The reaction was followed on a fluorimetric plate reader using an excitation wavelength of 355 nm and an emission wavelength of 528 nm.

[2] = system: Pseudomonas aeruginosa protease; experiment: Protease assay for P. aeruginosa (strains P1, PA14, ZK45 supernatants); type: biochemical; settings: 20 mM tris (pH 7.5), 150 mM NaCl, 37° C.
Source text: The peptide substrates used here were labeled with the fluorescent probe edans (5-((2-aminoethyl)amino)naphthalene-1-sulfonic acid) and the quencher dye molecule dabcyl ((4-(4-(dimethylamino)phenyl)azo)benzoic acid). The labeled peptide sequences used were as follows: […]

[3] = system: Serratia marcescens, Streptococcus salivarius, Escherichia coli, Pseudomonas aeruginosa, Enterococcus faecalis supernatants; experiment: Lipase assay, other bacterial supernatants; type: biochemical; settings: other bacterial samples; 20 mM Tris (pH 8.5); 37° C., 60 minutes
Experimental: (§1) A culture of each of the following bacterial species was grown to saturation in Brain Heart Infusion (BHI) broth at 37° C. with vigorous shaking (˜200 rpm), using methods that are standard in the art: Staphylococcus aureus; Staphylococcus epidermidis; Serratia marcescens; Streptococcus salivarius; Escherichia coli; Pseudomonas aeruginosa; and Enterococcus faecalis. After overnight growth (to saturation), a 1 mL sample of each culture was obtained, and the cells were removed from the culture supernatant by centrifugation at 12,000×g for 5 minutes. The remaining culture supernatants were stored on ice until required (less than one hour). The bacteria were assayed for the presence or absence of specific enzymes as described below. Alternatively, the bacterial cells are not separated from the culture supernatant, but rather, the assay is carried out on a sample containing the cells still in suspension in their culture broth. […]
(§2) To perform the lipase assay, 80 μL of reaction buffer, 10 μL of culture supernatant from each bacteria species described in Example 2, and 10 μL of assay substrate were added to a well of a 96-well microplate. […] At 5 minute intervals during the incubation period, absorbance at 415 nm, indicating modification of the enzyme by a lipase secreted by the cells, was automatically measured using a BioRad Benchmark Microplate reader.

[4] = system: Staphylococcus epidermidis; experiment: Glass microfiber filter biosensor, S. epidermidis culture; type: biochemical; settings: Quadrant #2, S. epidermidis; 37° C., 30 minutes
Experimental: (§3) An example of a biosensor for the detection of an enzyme secreted by Staphylococcus epidermidis (S. epidermidis), and therefore, for the detection of Staphylococcus epidermidis now follows. A […] solution of 20 mM p-nitrophenyl Caprate (in ispropanol) was applied to a 2.5 cm glass microfiber filter (Whatman GF/A). The isopropanol was allowed to evaporate at room temperature for 30 minutes, leaving the substrate bound to the filter. After the filter was completely dry, a single drop of bacterial culture was applied to each quadrant of the filter. In Quadrant #1, Staphylococcus aureus was applied; in Quadrant #2, Staphylococcus epidermidis was applied; in Quadrant #3 Streptococcus salivarius was applied, and in Quadrant #4, media was applied as a control. The filter was incubated at 37° C. for 30 minutes, and detection of a yellow dye, indicating modification of the substrate by an enzyme in the bacteria was detected.

Staphylococcus aureus = experiment: Glass microfiber filter biosensor, S. aureus culture; type: biochemical; settings: Quadrant #1, S. aureus; 37° C., 30 minutes
Experimental: as §3

lipase from S. aureus = experiment: Lipase assay, S. aureus culture supernatant; type: biochemical, Staphylococcus aureus; settings: 20 mM Tris (pH 8.5), 37° C., 60 minutes
Experimental: A culture of each of the following bacterial species was grown to saturation in Brain Heart Infusion (BHI) broth at 37° C. with vigorous shaking (˜200 rpm), using methods that are standard in the art: Staphylococcus aureus; Staphylococcus epidermidis; Serratia marcescens; Streptococcus salivarius; Escherichia coli; Pseudomonas aeruginosa; and Enterococcus faecalis. After overnight growth (to saturation), a 1 mL sample of each culture was obtained, and the cells were removed from the culture supernatant by centrifugation at 12,000×g for 5 minutes. The remaining culture supernatants were stored on ice until required (less than one hour). The bacteria were assayed for the presence or absence of specific enzymes as described below. Alternatively, the bacterial cells are not separated from the culture supernatant, but rather, the assay is carried out on a sample containing the cells still in suspension in their culture broth.
To test for the presence or absence of lipases secreted by bacteria, the lipase substrate p-nitrophenyl caprate, obtained from Sigma (Catalog No.: N-0252). This lipase substrate consists of capric acid, a ten-carbon lipid molecule, esterified with the dye para nitrophenol (detectable label) as described above. The substrate was dissolved in isopropyl alcohol at a concentration of 8 mM (2.35 mg/mL). A reaction buffer containing 20 mM Tris (pH 8.5) was also prepared.
To perform the lipase assay, 80 μL of reaction buffer, 10 μL of culture supernatant from each bacteria species described in Example 2, and 10 μL of assay substrate were added to a well of a 96-well microplate. Each bacterial species was assayed individually, and the assays were performed in triplicate. The 96-well plate was incubated at 37° C. for 60 minutes. At 5 minute intervals during the incubation period, absorbance at 415 nm, indicating modification of the enzyme by a lipase secreted by the cells, was automatically measured using a BioRad Benchmark Microplate reader.
However, it is known that bacterial lipases do show strong substrate specificity with regard to the chain length of the fatty acid they hydrolyze (Van Kampen et al., BBA, 1544: 229, 2001) and to the location in a lipid layer. The degree that the environment of the substrate affects the efficiency of hydrolysis depends on the particular enzyme. To test this for the lipase from S. aureus, the above-described lipase assay was performed in the presence of several detergent and solvent additives. The reaction buffer consisted of 20 mM Tris (pH 8.3) with 1 mM ZnSO4 added, plus either nothing additional (control), 20% methanol, 20% DMSO, or 10 mM Triton X-100.

Streptococcus salivarius = experiment: Glass microfiber filter biosensor, S. salivarius culture; type: biochemical; settings: Quadrant #3, S. salivarius; 37° C., 30 minutes
Experimental: as §3

[5] = system: lipases secreted by bacteria (Staphylococcus epidermidis); experiment: Lipase assay, S. epidermidis culture supernatant; type: biochemical; settings: 20 mM Tris (pH 8.5), 37° C., 60 minutes
Experimental: as §1, §2

[6] = system: DNA metabolism enzymes (exonuclease and endonuclease) in bacterial supernatants; experiment: Fluorescent DNA probe assay for DNA metabolism activity; type: biochemical; settings: supernatants of eight bacteria; excitation 485 nm, emission 538 nm; 37° C.
Experimental: Another method for detecting DNA metabolism activity is to generate synthetic colorimetric and fluorescent DNA probes that can indicate DNA hydrolysis (exonuclease and endonuclease activity). The method was carried out as follows. Two complementary oligonucleotides were generated. One oligonucleotide was labeled with self-quenching fluorescent labels, while the other primer remained unlabeled. The sequences of the oligonucleotides were as follows: Unlabeled Sequence 5′-[…]-3 (SEQ ID NO: 6); and Labeled Sequence FL-5′-[…]-3′-FL (SEQ ID NO: 7). […] The culture was spun down by centrifugation and the supernatant was collected. The fluorescent labeled primer and its unlabeled complement were dissolved in water at a concentration of approximately 1 mg/mL. The primers were heated to melting temperature for 2 minutes at 92° C., then allowed to anneal for 5 minutes at 43° C. After annealing, the DNA substrate was added to the reaction buffer (20 mM tris (pH 7.4) with 150 mM NaCl) and incubated at 37° C. for 10 minutes. The reaction was carried out with 7 μL of culture supernatant and 3 μL of DNA substrate in 100 μL total volume at 37° C. The reaction was followed using a fluorimetric plate reader using an excitation wavelength of 485 nm and an emission wavelength of 538 nm. […]

PGTKLYTVPW-pyrene [Alt derived fluorescent peptide]
change in fluorescence upon binding [1]: increase in fluorescence upon binding

KKAS(E-edans)AAHKSALKSAE(K-dabcyl) (KKASE(EDANS)AAHKSALKSAEK(Dabcyl″)) [papa2, papa1 version with two lysine groups as tag for surface attachment]
fluorescence upon cleavage on membrane (Pseudomonas): upon cleavage of the peptide yellow fluorescence
cleavage of protease substrate (relative fluorescence), comparison of species (Pseudomonas protease): greatest fluorescence in the sample containing Pseudomonas

Edans - KAAHKSALKSAE - Dabcyl (Edans-KAAHKSALKSAE-{Dabcyl′}) [papa1, labeled peptide substrate of Pseudomonas aeruginosa, origin PepA]
detection of P. aeruginosa in extracted wound fluid (relative fluorescence) (P. aeruginosa protease): samples containing P. aeruginosa were detectable
enzymatic cleavage of peptide substrate (relative fluorescent intensity) [2]: cleaved

CCCCCCCCCC(=O)Oc1ccc([N+](=O)[O-])cc1 [p-nitrophenyl caprate]
color change (absorbance at 415 nm) [3]: showed no color change
modification of labeled substrate on filter (yellow dye) [4]: Modification of the labeled substrate was detected
modification of labeled substrate on filter (yellow dye) (Staphylococcus aureus): no modification of the labeled substrate was detected
color change (absorbance at 415 nm) (lipase from S. aureus): showed a dramatic color change
modification of labeled substrate on filter (yellow dye) (Streptococcus salivarius): no modification of the labeled substrate was detected
color change (absorbance at 415 nm) [5]: showed a dramatic color change

FL-5′-AGGAATTCAGTGGATCCTCGAGAGG-3′-FL (antisense CCTCTCGAGGATCCACTGAATTCCT; sense: DNA, backbone not given here; antisense: DNA, backbone and methylation of C not given here; further chemistry not fully specified) [labeled DNA probe]
DNA metabolic activity (relative fluorescence of labeled probe) [6]: detected specific DNA metabolic activity associated with Enterococcus

From patent US9017963B2, “Method for detecting microorganisms” (Woundchek Laboratories (US), Inc., priority 2002, dated 2015)
